Laboratory results: publication PMC12775434, “Ultra-large virtual screening unveils potent agonists of the neuromodulatory orphan receptor GPR139” (Nature Communications, 2025)
Where “and” joins values, the source holds several entries; their conditions need not be identical. Identical values can stand only once. Like-named read-outs stand apart in the source and are kept apart here.

Biological target: T1, GPR139 (Homo sapiens, UniProt Q6DWJ6)
T1 sequence (Q6DWJ6 1-353): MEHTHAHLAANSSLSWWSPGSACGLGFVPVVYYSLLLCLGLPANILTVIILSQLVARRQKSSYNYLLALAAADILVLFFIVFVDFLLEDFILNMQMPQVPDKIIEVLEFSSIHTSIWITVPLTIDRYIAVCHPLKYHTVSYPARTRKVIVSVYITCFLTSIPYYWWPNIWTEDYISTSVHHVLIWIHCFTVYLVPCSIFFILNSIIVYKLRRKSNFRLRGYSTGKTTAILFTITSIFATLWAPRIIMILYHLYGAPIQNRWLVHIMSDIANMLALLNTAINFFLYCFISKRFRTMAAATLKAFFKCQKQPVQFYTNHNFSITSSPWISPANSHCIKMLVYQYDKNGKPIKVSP
Assay: Ca2+ mobilization assay, agonist mode, stable GPR139-CHOk1 cell line
Type: cell-based
Conditions: for EC50: GPR139-CHOk1, read-out: EC50, Ca2+ mobilization; for Emax: normalized to Lundbeck Cmp 1a
How it was run: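 Agonist activity of compounds is assessed in stably transfected CHO-K1 cells using the calcium dye Fluo-4 at 37 °C in HEPES-buffered HBSS (pH 7.4). Efficacy is expressed relative to the reference agonist Lundbeck Cmp 1a, set as 100%.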

[1] = 0.1 µM, individual replicates (Supplementary Figure 3)
[2] = 1 µM, individual replicates (Supplementary Figure 3)
[3] = 10 µM, individual replicates (Supplementary Figure 3)
[4] = Agonist mode, individual replicates (Supplementary Figure 1)
[5] = Supplementary Table 2, mean ± SEM, read-out: Emax (%) Ca2+
[6] = log [Compound] M -4.5, replicate experiments
[7] = log [Compound] M -5.0, replicate experiments
[8] = log [Compound] M -5.5, replicate experiments
[9] = log [Compound] M -6.0, replicate experiments
[10] = log [Compound] M -6.5, replicate experiments
[11] = log [Compound] M -7.0, replicate experiments
[12] = log [Compound] M -7.5, replicate experiments
[13] = log [Compound] M -8.0, replicate experiments
[14] = log [Compound] M -8.5, replicate experiments
[15] = log [Compound] M -9.0, replicate experiments
[16] = primary screen, 10 µM compound, agonist mode, three columns = independent experiments

Structure (SMILES) | Ca2+ signal (% of Cmp 1a) [1] | Ca2+ signal (% of Cmp 1a) [2] | Ca2+ signal (% of Cmp 1a) [3] | Ca2+ signal (% of Cmp 1a) [4] | EC50 [nM] | Emax [5] [%] | Ca2+ signal (% of Cmp 1a) [6] | Ca2+ signal (% of Cmp 1a) [7] | Ca2+ signal (% of Cmp 1a) [8] | Ca2+ signal (% of Cmp 1a) [9] | Ca2+ signal (% of Cmp 1a) [10] | Ca2+ signal (% of Cmp 1a) [11] | Ca2+ signal (% of Cmp 1a) [12] | Ca2+ signal (% of Cmp 1a) [13] | Ca2+ signal (% of Cmp 1a) [14] | Ca2+ signal (% of Cmp 1a) [15] | Ca2+ signal (% of Cmp 1a) [16] | other results
CC(NC(=O)Cn1cncc(-c2ccccc2)c1=O)c1ccccc1 (centres unmarked) [Compound 5, C[C@@H](NC(=O)CN1C=NC=C(C=2C=CC=CC2)C1=O)C=3C=CC=CC3] | 0.9 % of Cmp 1a and -12.1 % of Cmp 1a | 17.5 % of Cmp 1a and 11.9 % of Cmp 1a | 52.6 % of Cmp 1a and 31.9 % of Cmp 1a | 71 % of Cmp 1a and 78 % of Cmp 1a and 63 % of Cmp 1a | 3600 | 88 ± 4 | 91 % of Cmp 1a and 74 % of Cmp 1a and 86 % of Cmp 1a | 75 % of Cmp 1a and 51 % of Cmp 1a and 76 % of Cmp 1a | 60 % of Cmp 1a and 41 % of Cmp 1a and 50 % of Cmp 1a | 23 % of Cmp 1a (2×) and 24 % of Cmp 1a | 16 % of Cmp 1a (2×) and 0.619 % of Cmp 1a | 11 % of Cmp 1a | 9 % of Cmp 1a and 2.21 % of Cmp 1a and 7 % of Cmp 1a | 3.64 % of Cmp 1a and 0.518 % of Cmp 1a and 5.27 % of Cmp 1a | 13 % of Cmp 1a and 0.00547 % of Cmp 1a and 8 % of Cmp 1a | 7 % of Cmp 1a and -1.29 % of Cmp 1a and 10 % of Cmp 1a | 71 % of Cmp 1a and 78 % of Cmp 1a and 63 % of Cmp 1a | 
Cc1cscc1-c1nc(CC(=O)N[C@@H](C)c2ccccc2)no1 [1.1(S)] |  |  |  |  | 8 |  |  |  |  |  |  |  |  |  |  |  |  | Emax (Supplementary Table 7, read-out: Emax (%), Ca2+ mobilization): 121 ± 11%; Ca2+ signal (% of Cmp 1a) (log [Compound] M -8.5, individual replicates): 28 % of Cmp 1a and 50 % of Cmp 1a and 51 % of Cmp 1a; Ca2+ signal (% of Cmp 1a) (log [Compound] M -9.0, individual replicates): 24 % of Cmp 1a and 31 % of Cmp 1a and 22 % of Cmp 1a; Ca2+ signal (% of Cmp 1a) (log [Compound] M -12.0, individual replicates): 0 % of Cmp 1a; Ca2+ signal (% of Cmp 1a) (log [compound] M -4.5, individual replicates): 102 % of Cmp 1a and 114 % of Cmp 1a and 136 % of Cmp 1a; Ca2+ signal (% of Cmp 1a) (log [compound] M -5.0, individual replicates): 108 % of Cmp 1a and 117 % of Cmp 1a and 136 % of Cmp 1a; Ca2+ signal (% of Cmp 1a) (log [compound] M -5.5, individual replicates): 90 % of Cmp 1a and 125 % of Cmp 1a and 141 % of Cmp 1a; Ca2+ signal (% of Cmp 1a) (log [compound] M -6.0, individual replicates): 102 % of Cmp 1a and 120 % of Cmp 1a and 136 % of Cmp 1a; Ca2+ signal (% of Cmp 1a) (log [compound] M -6.5, individual replicates): 96 % of Cmp 1a and 104 % of Cmp 1a and 131 % of Cmp 1a; Ca2+ signal (% of Cmp 1a) (log [compound] M -7.0, individual replicates): 104 % of Cmp 1a and 95 % of Cmp 1a and 127 % of Cmp 1a; Ca2+ signal (% of Cmp 1a) (log [compound] M -7.5, individual replicates): 92 % of Cmp 1a and 77 % of Cmp 1a and 113 % of Cmp 1a; Ca2+ signal (% of Cmp 1a) (log [compound] M -8.0, individual replicates): 61 % of Cmp 1a and 62 % of Cmp 1a and 73 % of Cmp 1a
Cc1cc(-c2nc(CC(=O)NC(C)c3ccccc3)no2)sc1C (centres unmarked) [Compound 1, CC(NC(=O)CC1=NOC(=N1)C2=CC(C)=C(C)S2)C=3C=CC=CC3] | 36.2 % of Cmp 1a and 58.0 % of Cmp 1a | 74.5 % of Cmp 1a and 72.2 % of Cmp 1a | 88.7 % of Cmp 1a and 74.0 % of Cmp 1a | 94 % of Cmp 1a (2×) and 99 % of Cmp 1a | 160 | 94 ± 3 | 84 % of Cmp 1a and 91 % of Cmp 1a and 93 % of Cmp 1a | 91 % of Cmp 1a and 83 % of Cmp 1a and 90 % of Cmp 1a | 79 % of Cmp 1a | 79 % of Cmp 1a and 67 % of Cmp 1a and 70 % of Cmp 1a | 57 % of Cmp 1a and 52 % of Cmp 1a and 53 % of Cmp 1a | 45 % of Cmp 1a and 26 % of Cmp 1a and 43 % of Cmp 1a | 27 % of Cmp 1a and 24 % of Cmp 1a and 16 % of Cmp 1a | 10 % of Cmp 1a and 2 % of Cmp 1a and 7.42 % of Cmp 1a | 1.62 % of Cmp 1a and 6 % of Cmp 1a and 3.64 % of Cmp 1a | 6 % of Cmp 1a and -1.9 % of Cmp 1a and 3.54 % of Cmp 1a | 94 % of Cmp 1a and 99 % of Cmp 1a | 
